In patent US8158389B2, “Products and methods for in vivo secretion of monatin” (priority 2005, dated 2012):
Values joined by “and” are separate entries in the source; they are usually repeats but may differ in a detail not shown here. Equal values may be shown once.

Target: T1, AcrAB efflux system (Escherichia coli, UniProt P31224)
T1 construct: endogenous in cells; host or cells: E. coli BL21 (DE3) carrying aspC/proA on pET32
Test: Monatin efflux per dry cell weight after induction of the AcrAB efflux pump with sodium decanoate
Type: cell-based
Experimental: The microbial strain used for the experiment was E. coli BL21 (DE3) : : aspC/proA/pET32 (WO 03091396). The symbol : :, as is known in the art, stands for “transformed.” Example 12 provides a non-limiting exemplary method for transforming a microorganism. For an inoculum, the E. coli strains were grown overnight at 37° C. and 250 rpm in Luria-Bertani (“LB”) medium with 100 μg/mL ampicillin. For the experimental treatments, Trp-1+ glucose medium, a minimal medium that has been used for increased production of tryptophan in E. coli cells (Zeman et al. Folia Microbiol. 35:200-204, (1990)), was prepared as follows. To 800 mL nanopure water the following reagents were added: 2 g (NH4)2SO4 and 13.6 g KH2PO4. The pH was adjusted to 7.0, the volume was increased to 948 mL, and the medium was autoclaved. Following sterilization, 0.2 g MgSO4.7H2O, 0.01 g CaCl2.2H2O, and 0.5 mg FeSO4.7H2O were added to the medium in a 1.8 mL volume followed by addition of 0.2 mL of Neidhardt's micronutrient solution. Neidhardt, F. C., et al., “Culture medium for Enterobacteria,” J. Bacteriol. 119:736-746 (1974). Neidhardt's medium includes (per liter): 0.18 g (NH4)6(MO7)24.4H2O, 1.24 g H3BO3, 0.36 g CoCl2.6H2O, 0.12 g CuSO4 (anhydrous), 0.8 g MnCl2.4H2O, and 0.14 g ZnSO4.7H2O. A 50% glucose solution was prepared separately and sterile-filtered. Forty mL of glucose solution and 10 mL of 1 M 3-Morpholinopropanesulfonic acid (“MOPS”) buffer were added to the base medium (950 mL) for a 1 L final volume. […] Flasks were incubated at 37° C. with agitation at 250 rpm up to induction. […] 0.5 mM pyridoxine hydrochloride, and 0.2 mL of Balch's vitamins (Balch, W. E., et al., “Methanogens: reevaluation of a unique biological group,” Microbiol. Rev. 43:260-296, (1979)) were added at induction and the incubation temperature was lowered to 30° C. following induction. […] Some treatments included 2.5 mM sodium decanoate addition at 3.5 hours following induction. Samples for monatin analysis and dry cell weight determination were taken at 24 and 30 hours. Monatin analysis was done as described in Example 13.
Analyses of mixtures for monatin and tryptophan derived from in vitro or in vivo biochemical reactions were performed using a Waters/Micromass liquid chromatography-tandem mass spectrometry (“LC/MS/MS”) instrument including a Waters 2795 liquid chromatograph with a Waters 996 Photo-Diode Array (PDA) absorbance monitor placed in series between the chromatograph and a Micromass Quattro Ultima triple quadrupole mass spectrometer. LC separations were made using an Xterra MS C8 reversed-phase chromatography column, 2.1 mm×250 mm at 40° C. The LC mobile phase consisted of A) water containing 0.05% (v/v) trifluoroacetic acid and B) methanol containing 0.05% (v/v) trifluoroacetic acid.
The gradient elution was linear from 5% B to 35% B, 0-4 min, linear from 35% B to 60% B, 4-6.5 min, linear from 60% B to 90% B, 6.5-7 min, isocratic at 90% B 7-11 min, linear from 90% B to 95% B, 11-12 min, linear from 95% B to 5% B, 12-13 min, with a 5 min re-equilibration period between runs. The flow rate was 0.25 mL/min, and PDA absorbance was monitored from 200 nm to 400 nm. All parameters of the ESI-MS were optimized and selected based on generation of protonated molecular ions ([M+H]^+) of the analytes of interest, and production of characteristic fragment ions. […]

[1] = 2.5 mM Na decanoate, E. coli BL21 (DE3)::aspC/proA/pET32, single flasks

T1 sequence (P31224 whole entry): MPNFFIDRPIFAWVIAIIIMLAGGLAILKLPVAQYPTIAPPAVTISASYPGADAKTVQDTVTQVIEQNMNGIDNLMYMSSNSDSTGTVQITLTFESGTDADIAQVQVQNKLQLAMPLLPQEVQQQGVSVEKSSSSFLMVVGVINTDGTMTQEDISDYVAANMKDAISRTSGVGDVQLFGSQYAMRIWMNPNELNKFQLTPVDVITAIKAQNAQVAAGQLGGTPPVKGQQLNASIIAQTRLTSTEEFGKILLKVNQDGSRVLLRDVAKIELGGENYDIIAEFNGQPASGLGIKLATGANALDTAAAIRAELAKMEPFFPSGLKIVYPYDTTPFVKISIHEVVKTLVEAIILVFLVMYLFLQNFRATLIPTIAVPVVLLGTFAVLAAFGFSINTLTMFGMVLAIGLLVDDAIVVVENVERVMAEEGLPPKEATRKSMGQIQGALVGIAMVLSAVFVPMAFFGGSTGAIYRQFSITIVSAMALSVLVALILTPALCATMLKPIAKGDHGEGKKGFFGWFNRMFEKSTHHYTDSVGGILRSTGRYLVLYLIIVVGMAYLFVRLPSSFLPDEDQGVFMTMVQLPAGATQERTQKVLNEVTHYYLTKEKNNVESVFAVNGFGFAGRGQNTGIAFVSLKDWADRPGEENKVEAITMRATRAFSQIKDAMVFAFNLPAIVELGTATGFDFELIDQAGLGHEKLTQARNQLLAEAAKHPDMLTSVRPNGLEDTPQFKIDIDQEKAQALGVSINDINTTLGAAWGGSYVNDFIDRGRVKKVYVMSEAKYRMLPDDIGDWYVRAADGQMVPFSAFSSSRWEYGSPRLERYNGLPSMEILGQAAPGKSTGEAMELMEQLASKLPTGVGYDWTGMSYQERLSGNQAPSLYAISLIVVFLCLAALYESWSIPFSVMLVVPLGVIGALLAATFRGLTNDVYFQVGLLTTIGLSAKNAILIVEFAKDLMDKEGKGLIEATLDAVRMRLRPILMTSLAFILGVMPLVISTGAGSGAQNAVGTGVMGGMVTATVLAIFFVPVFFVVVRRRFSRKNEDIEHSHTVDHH
T1 sequence (P02930 23-493, further chain): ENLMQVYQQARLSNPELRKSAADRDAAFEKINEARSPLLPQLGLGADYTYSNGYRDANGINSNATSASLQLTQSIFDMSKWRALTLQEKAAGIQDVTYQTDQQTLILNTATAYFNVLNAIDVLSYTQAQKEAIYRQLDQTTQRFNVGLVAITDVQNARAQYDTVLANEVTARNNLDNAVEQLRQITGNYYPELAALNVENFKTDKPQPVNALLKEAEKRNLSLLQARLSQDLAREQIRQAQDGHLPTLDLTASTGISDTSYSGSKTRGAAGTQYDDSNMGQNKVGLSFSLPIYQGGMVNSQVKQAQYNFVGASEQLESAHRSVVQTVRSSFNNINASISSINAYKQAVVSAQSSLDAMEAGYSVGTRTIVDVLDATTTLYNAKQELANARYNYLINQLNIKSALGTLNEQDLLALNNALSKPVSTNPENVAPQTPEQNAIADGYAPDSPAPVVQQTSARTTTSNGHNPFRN
T1 sequence (P0AE06 25-397, further chain): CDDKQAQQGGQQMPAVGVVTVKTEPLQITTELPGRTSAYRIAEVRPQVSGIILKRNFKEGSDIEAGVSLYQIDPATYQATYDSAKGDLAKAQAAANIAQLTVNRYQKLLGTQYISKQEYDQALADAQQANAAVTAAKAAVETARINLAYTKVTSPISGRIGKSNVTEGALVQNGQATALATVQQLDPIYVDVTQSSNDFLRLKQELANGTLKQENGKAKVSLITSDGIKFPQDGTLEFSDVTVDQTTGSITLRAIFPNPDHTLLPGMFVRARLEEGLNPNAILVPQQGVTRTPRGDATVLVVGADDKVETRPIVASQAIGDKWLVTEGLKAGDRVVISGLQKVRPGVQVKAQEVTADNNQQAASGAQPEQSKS

CCCCCCCCCC(=O)[O-].[Na+] [sodium decanoate]
Monatin/dcw at run hour 24 [1]: 14.7 mg monatin/g dcw and 12.0 mg monatin/g dcw and 17.0 mg monatin/g dcw | Monatin/dcw at run hour 30 [1]: 14.3 mg monatin/g dcw and 13.8 mg monatin/g dcw and 17.4 mg monatin/g dcw | Average monatin/dcw at run hour 24 (2.5 mM Na decanoate, n = 3): 14.6 mg monatin/g dcw | Average monatin/dcw at run hour 30 (2.5 mM Na decanoate, n = 3): 15.2 mg monatin/g dcw | increase in monatin secreted/dry cell weight (2.5 mM sodium decanoate vs no decanoate): Greater than nine fold increase
